Measured values from US5648369A, “Aminoalkylpyridine compounds which are useful as anitconvulsant drugs, excitatory amino acid inhibitors and NMDA sigma receptor antagonists” (priority 1991, dated 1997).

Legend:
NMDA = assay: Radioligand binding, NMDA, [3H]CGS19755
Source text: (§1) EAAs are known to play important roles in excitatory neurotransmission in partial seizures as discussed earlier. […] Thus, several aminoalkylpyridines of this invention are effective antagonists of NMDA-receptor mediated EAA neurotransmission and function as noncompetitive NMDA antagonists and thus can be used to advantage in epilepsy, stroke and Alzheimer's disease.
(§2) EAAs are known to play important roles in excitatory transmission in partial seizures as discussed earlier. In general, antieptileptic drugs effective against MES seizures alter ionic transport across excitable membranes [Porter, R. J., and Pitlick, W. H., In "Basic and Clinical Pharmacology", 4th Edn., B. G. Katzung, Ed., Appleton and Lange, CA 1989, pp. 287-303]. Based on this rationale, the aminoalkylpyridines may be expected to attenuate EAA neurotransmission. Indeed, evaluation of potential displacement activity of #2 at all inhibitory and excitatory amino acid receptor types and subtypes using appropriate radioligands, indicate that this aminoalkylpyridine inhibits at 10 μM concentration, 49% of the binding of [^3 H]DTG, a ligand highly specific for the σ (sigma) receptor population of the PCP receptors on the NMDA receptor-ionophore complex (Table 6).
(§3) Values are expressed as the percent inhibition of specific binding and […]

GABAA = assay: Radioligand binding, GABAA
Source text: (§4) EAAs are known to play important roles in excitatory neurotransmission in partial seizures as discussed earlier.
(§5) EAAs are known to play important roles in excitatory transmission in partial seizures as discussed earlier.

Glycine [1] = target: Glycine (Homo sapiens, UniProt P23415); assay: Radioligand binding, Glycine (inhibitory)
Chain of Glycine (Homo sapiens, UniProt P23415) (P23415 29-457): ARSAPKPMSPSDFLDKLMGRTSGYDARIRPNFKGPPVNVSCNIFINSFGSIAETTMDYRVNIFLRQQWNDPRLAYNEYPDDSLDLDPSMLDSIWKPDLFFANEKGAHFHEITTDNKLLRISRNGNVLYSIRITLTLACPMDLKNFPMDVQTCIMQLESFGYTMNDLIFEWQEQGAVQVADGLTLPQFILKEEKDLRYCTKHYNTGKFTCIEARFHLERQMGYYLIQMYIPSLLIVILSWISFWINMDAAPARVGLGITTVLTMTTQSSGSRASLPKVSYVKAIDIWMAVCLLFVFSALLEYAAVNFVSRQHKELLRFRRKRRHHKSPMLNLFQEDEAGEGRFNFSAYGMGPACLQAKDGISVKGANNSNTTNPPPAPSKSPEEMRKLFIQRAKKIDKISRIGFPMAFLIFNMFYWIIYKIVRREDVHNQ
Chain of Glycine (Homo sapiens, UniProt P23415) (P48167 23-497 partner): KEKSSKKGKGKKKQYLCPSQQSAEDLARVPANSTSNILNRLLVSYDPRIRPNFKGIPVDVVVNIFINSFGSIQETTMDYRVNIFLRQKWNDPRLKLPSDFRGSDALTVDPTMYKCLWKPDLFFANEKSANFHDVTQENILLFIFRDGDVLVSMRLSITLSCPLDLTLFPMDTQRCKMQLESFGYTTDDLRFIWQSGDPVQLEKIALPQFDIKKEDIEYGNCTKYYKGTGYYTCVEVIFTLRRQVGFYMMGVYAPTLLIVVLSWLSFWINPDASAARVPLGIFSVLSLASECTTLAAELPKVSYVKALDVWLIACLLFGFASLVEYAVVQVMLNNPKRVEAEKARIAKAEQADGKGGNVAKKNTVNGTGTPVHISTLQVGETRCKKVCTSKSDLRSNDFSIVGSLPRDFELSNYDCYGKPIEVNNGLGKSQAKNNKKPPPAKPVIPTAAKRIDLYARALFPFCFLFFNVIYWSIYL
Source text: as §4, §5

Benzodiazepine = assay: Radioligand binding, Benzodiazepine
Source text: as §1, §2, §3

GABAe = GABAe (Homo sapiens, UniProt Q9UBS5); assay: Radioligand binding, GABAe
Chain of GABAe (Q9UBS5 15-961 limits assumed): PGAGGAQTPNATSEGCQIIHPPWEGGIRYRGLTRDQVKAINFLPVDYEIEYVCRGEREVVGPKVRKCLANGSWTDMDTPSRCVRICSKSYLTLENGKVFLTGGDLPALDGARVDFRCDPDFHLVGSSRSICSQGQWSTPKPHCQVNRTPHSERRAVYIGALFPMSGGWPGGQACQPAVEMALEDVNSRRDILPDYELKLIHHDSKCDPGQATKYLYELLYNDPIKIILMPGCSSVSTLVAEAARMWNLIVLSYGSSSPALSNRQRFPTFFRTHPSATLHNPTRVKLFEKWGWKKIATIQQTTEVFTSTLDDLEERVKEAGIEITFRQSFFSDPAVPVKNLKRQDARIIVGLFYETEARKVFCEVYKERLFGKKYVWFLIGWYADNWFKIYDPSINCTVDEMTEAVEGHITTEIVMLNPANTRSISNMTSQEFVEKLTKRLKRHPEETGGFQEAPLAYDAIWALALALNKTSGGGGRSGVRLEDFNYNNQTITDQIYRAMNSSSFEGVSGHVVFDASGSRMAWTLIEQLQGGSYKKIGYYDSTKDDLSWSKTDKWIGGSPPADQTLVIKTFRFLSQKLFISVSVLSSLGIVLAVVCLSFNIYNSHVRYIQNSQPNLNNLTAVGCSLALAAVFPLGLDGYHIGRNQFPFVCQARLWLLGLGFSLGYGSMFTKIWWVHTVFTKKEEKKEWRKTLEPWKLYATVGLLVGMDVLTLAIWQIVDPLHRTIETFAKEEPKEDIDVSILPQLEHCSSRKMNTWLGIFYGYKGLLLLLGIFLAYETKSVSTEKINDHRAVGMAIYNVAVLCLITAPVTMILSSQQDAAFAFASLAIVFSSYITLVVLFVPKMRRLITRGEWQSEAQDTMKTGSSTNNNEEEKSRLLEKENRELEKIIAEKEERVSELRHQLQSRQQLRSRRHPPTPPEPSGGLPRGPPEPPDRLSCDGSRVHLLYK
Chain of GABAe (O75899 42-941 partner): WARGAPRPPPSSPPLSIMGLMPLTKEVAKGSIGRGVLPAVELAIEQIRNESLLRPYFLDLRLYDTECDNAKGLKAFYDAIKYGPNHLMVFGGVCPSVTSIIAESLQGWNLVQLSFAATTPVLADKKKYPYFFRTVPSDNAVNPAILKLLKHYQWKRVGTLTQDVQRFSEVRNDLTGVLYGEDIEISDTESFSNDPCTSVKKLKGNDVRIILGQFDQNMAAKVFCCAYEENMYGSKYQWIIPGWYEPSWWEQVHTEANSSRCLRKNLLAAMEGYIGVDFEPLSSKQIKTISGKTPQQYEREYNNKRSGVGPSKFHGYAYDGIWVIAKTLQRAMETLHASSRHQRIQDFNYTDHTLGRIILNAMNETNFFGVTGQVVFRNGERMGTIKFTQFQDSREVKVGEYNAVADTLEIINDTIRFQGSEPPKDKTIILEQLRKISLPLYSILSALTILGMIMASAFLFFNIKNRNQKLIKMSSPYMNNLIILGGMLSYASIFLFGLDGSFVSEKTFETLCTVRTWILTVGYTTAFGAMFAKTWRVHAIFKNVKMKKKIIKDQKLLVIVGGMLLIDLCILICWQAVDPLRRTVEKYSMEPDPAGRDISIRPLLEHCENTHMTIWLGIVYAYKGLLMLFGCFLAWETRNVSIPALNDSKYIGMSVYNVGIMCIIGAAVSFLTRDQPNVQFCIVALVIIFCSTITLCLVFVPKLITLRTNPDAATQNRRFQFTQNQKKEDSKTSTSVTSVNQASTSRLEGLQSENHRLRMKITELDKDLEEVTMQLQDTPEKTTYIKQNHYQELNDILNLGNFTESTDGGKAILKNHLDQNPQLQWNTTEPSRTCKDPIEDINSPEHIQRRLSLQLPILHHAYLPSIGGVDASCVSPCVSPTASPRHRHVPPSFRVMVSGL
Source text: as §4, §5

Glycine [2] = target: Glycine (Homo sapiens, UniProt Q05586); assay: Radioligand binding, Glycine (excitatory), [3H]glycine
Source text: as §4, §5

[3] = tested on: maximal electroshock seizures; assay: Maximal electroshock seizure (MES) test in the rat, p.o.
Source text: (§7) The Maximal Electroshock Seizure Test (MES): Maximal electroshock seizures are elicited with a 60 Hz alternating current of 50 mA intensity in mice and about 150 mA in rats (5-7 times that necessary to elicit minimal electroshock seizures), delivered for 0.2 sec via corneal electrodes. A drop of 0.9% saline is instilled in the eye prior to application of the electrodes in order to prevent the death of the animal. Abolition of the hind limb tonic extension component of the seizure is defined as protection and results are expressed as number of animals protected/number of animals tested.
This species will be subject of the complete anticonvulsant quantification test evaluation as described above, but after oral (gavage) administration of the candidate compound.
Neurological deficit in rats is examined by the positional sense test and gait and stance test. […] Inability to do so rapidly indicates a neurologic deficit. In the gait and stance test, a neurologic deficit is indicated by a circular or zigzag gait, ataxia, abnormal spread of the legs, abnormal body posture, tremor, hyperactivity, lack of exploratory behavior, somnolence, stupor, or catalepsy.

Quisqualate = assay: Radioligand binding, Quisqualate, [3H]AMPA
Source text: as §1, §2, §3

[4] = tested on: subcutaneous pentylenetetrazol seizures; assay: Subcutaneous pentylenetetrazol seizure threshold test (scMet), rat, p.o.; type: in vivo, rat (Sprague-Dawley); conditions: po
Method: (§6) The Subcutaneous Pentylenetetrazol (Metrazole) Seizure Threshold Test (scMet): A 0.5% solution of 85 mg/kg of pentylenetetrazol is administered subcutaneously in the posterior midline. The animal is observed for 30 minutes.

in vivo = assay: in vivo; parameters: species or system rat (Sprague-Dawley); conditions: rat, po
Source text: Inability to do so rapidly indicates a neurologic deficit.

Sigma = assay: Radioligand binding, Sigma, [3H]DTG
Source text: as §4, §5

[5] = Rotorod ataxia test (neurotoxicity), mice, i.p.; conditions: mouse, in vivo, ip
Method: Neurotoxicity is evaluated in mice by the rotorod ataxia test. The animal is placed on a wooden rod of 11/8" diameter rotating at 6 rpm. Normal mice can remain on a rod rotating at this speed indefinitely.

MES and scMet seizures = assay: Anticonvulsant screening, ASP classification (MES and scMet tests) in mice, i.p.; type: in vivo, mouse; conditions: ip; i.p. mouse; read-out: ASP Group Classification
[6] = tested on: maximal electroshock seizures; assay: Maximal electroshock seizure (MES) test, anticonvulsant quantification in mice, i.p.
Method: Screening Methodology to Determine Anticonvulsant Activity: In mice, i.p.: All compounds are solubilized in 0.5% methylcellulose. […] The compounds are administered intraperitoneally in a volume of 0.01 ml/gm to male Carworth Farms #1 mice weighing about 20 gm. All compounds are tested at least at three dose levels (30, 100 an 300 mg/kg) at 30 minutes and 4 hours after their administration.
as §7
Anticonvulsant Quantification in Mice, i.p.: The ED50 values are determined in the MES, scMet and rotorod ataxia test.

MK-801 = assay: Radioligand binding, MK-801, [3H]MK-801
Source text: as §1, §2, §3

Adenosine = assay: Radioligand binding, Adenosine
Source text: as §1, §2, §3

PCF = assay: Radioligand binding, PCP, [3H]TCP
Source text: as §1, §2, §3

[7] = tested on: endogenous L-glutamate release; assay: Ca2+ dependent, K+ evoked release of endogenous L-glutamate in cerebrocortical slices; type: cell-based, guinea pig; conditions: Cavia porcellus; for activity at 50 µM / activity at 100 µM: means ± SEM, n = 4
[8] = tested on: subcutaneous pentylenetetrazol seizures; assay: Subcutaneous pentylenetetrazol (Metrazole) seizure threshold test (scMet), mice, i.p.; type: in vivo; conditions: Mus musculus, ip
Method: as §6

Kainate = assay: Radioligand binding, Kainate, [3H]KA
Source text: as §1, §2, §3

[9] = 10^-7 M, read-out: Percent Inhibition of specific binding (Average; N = 2)

SMILES: O=C(O)C1CN(CCCP(=O)(O)O)CCN1 (stereo not drawn) [CPP, reference compound]
- Ki (NMDA; reference compound, [3H]CGS19755): 0.359 µM

SMILES: NCc1cc(=O)[nH]o1 [Muscimol, reference compound]
- Ki (GABAA; reference compound, GABAA): 0.0028 µM

SMILES: O=C1C[C@@H]2OCC=C3CN4CC[C@]56c7ccccc7N1[C@H]5[C@H]2[C@H]3C[C@H]46 [Strychnine Nitrate, reference compound]
- Ki (Glycine [1]): 0.0335 µM

SMILES: O=C1CN=C(c2ccccc2Cl)c2cc([N+](=O)[O-])ccc2N1 [Clonazepam, reference compound]
- Ki (Benzodiazepine; reference compound, Benzodiazepine): 0.0034 µM

SMILES: CC(Nc1ccc(Cl)cc1)c1ccncc1 (stereo not drawn) [Compound 2, 1-(4-Chloroanilino)-1-(4-pyridyl)-ethan]
- Percent Inhibition of specific binding (Average; N = 2) (GABAe; 1.0^-5 M): -4.9%
- inhibition at 0.1 µM (GABAe; [9]): 3.6%
- Percent Inhibition of specific binding (Average; N = 2) (NMDA; 1.0^-5 M): -6.6%
- Percent Inhibition of specific binding (Average; N = 2) (NMDA; 10^-7 M): 3.5%
- Percent Inhibition of specific binding (Average; N = 2) (Glycine [2]; 1.0^-5 M): -4.0%
- inhibition at 0.1 µM (Glycine [2]; [9]): 8.7%
- ED50 ([3]; Rattus norvegicus, po, read-out: ED50 MES): 22.9 mg/kg
- responders at 50 mg/kg ([3]; Rattus norvegicus, po, read-out: Percent protection at 50 mg/kg dose, p.o., in the MES Test in the rat): 75 to 100%
- P.I. MES (TD50/ED50) ([3]; rat, p.o.): > 20.53
- Percent Inhibition of specific binding (Average; N = 2) (Quisqualate; 1.0^-5 M): 4.3%
- Percent Inhibition of specific binding (Average; N = 2) (Quisqualate; 10^-7 M): 4.2%
- ED50 [4]: > 250 mg/kg
- TD50 (in vivo): > 470 mg/kg
- inhibition of the binding of [3H]DTG (Sigma; 10 μM concentration): 49%
- Percent Inhibition of specific binding (Average; N = 2) (Sigma; 1.0^-5 M): 49.1%
- Percent Inhibition of specific binding (Average; N = 2) (Sigma; 10^-7 M): 12.9%
- inhibition of the binding of [3H]DTG (in words) (Sigma; σ receptor population): inhibit selectively
- TD50 [5]: 160 mg/kg
- minimal effective dose (MES and scMet seizures): < 100 mg/kg
- Percent Inhibition of specific binding (Average; N = 2) (GABAA; 1.0^-5 M): 1.2%
- Percent Inhibition of specific binding (Average; N = 2) (GABAA; 10^-7 M): 6.5%
- ED50 ([6]; Mus musculus, ip, read-out: ED50 MES): 53.7 mg/kg
- P.I. MES (TD50/ED50) ([6]; mice, i.p.): 2.98
- activity at the [3H]MK-801-binding receptor sites (in words) (MK-801): no activity
- Percent Inhibition of specific binding (Average; N = 2) (MK-801; 1.0^-5 M): 17.0%
- Percent Inhibition of specific binding (Average; N = 2) (MK-801; 10^-7 M): 13.5%
- Percent Inhibition of specific binding (Average; N = 2) (Adenosine; 1.0^-5 M): -15.9%
- Percent Inhibition of specific binding (Average; N = 2) (Adenosine; 10^-7 M): -15.2%
- activity at the [3H]TCP-binding receptor sites / PCP receptors (in words) (PCF): no activity
- Percent Inhibition of specific binding (Average; N = 2) (PCF; 1.0^-5 M): -1.8%
- Percent Inhibition of specific binding (Average; N = 2) (PCF; 10^-7 M): -3.8%
- activity at 50 µM ([7]; 50 μM (K+), 30 mM K+, P < 0.001 vs K+ alone): 121 ± 8%
- activity at 50 µM ([7]; 50 μM (basal)): 101 ± 6%
- activity at 100 µM ([7]; 100 μM (K+), 30 mM K+, P < 0.001 vs K+ alone): 114 ± 4%
- activity at 100 µM ([7]; 100 μM (basal)): 99 ± 9%
- inhibition at 50 µM ([7]; 50 μM): 74%
- inhibition at 100 µM ([7]; 100 μM): 80%
- Percent Inhibition of specific binding (Average; N = 2) (Glycine [1]; 1.0^-5 M): -1.4%
- inhibition at 0.1 µM (Glycine [1]; [9]): -1.8%
- ED50 [8]: < 150 mg/kg
- Percent Inhibition of specific binding (Average; N = 2) (Kainate; 1.0^-5 M): -7.3%
- Percent Inhibition of specific binding (Average; N = 2) (Kainate; 10^-7 M): -3.7%
- Percent Inhibition of specific binding (Average; N = 2) (Benzodiazepine; 1.0^-5 M): -7.8%
- Percent Inhibition of specific binding (Average; N = 2) (Benzodiazepine; 10^-7 M): -4.7%
